Laboratory results as given in paper PMC12442245, “Activity Analysis of the P2X Receptor Antagonist PPADS against Signal Transducer and Activator of Transcription Proteins” (Chembiochem, 2025).

Target: T1, STAT5b (Homo sapiens, UniProt P51692)
T1 sequence (P51692 1-787): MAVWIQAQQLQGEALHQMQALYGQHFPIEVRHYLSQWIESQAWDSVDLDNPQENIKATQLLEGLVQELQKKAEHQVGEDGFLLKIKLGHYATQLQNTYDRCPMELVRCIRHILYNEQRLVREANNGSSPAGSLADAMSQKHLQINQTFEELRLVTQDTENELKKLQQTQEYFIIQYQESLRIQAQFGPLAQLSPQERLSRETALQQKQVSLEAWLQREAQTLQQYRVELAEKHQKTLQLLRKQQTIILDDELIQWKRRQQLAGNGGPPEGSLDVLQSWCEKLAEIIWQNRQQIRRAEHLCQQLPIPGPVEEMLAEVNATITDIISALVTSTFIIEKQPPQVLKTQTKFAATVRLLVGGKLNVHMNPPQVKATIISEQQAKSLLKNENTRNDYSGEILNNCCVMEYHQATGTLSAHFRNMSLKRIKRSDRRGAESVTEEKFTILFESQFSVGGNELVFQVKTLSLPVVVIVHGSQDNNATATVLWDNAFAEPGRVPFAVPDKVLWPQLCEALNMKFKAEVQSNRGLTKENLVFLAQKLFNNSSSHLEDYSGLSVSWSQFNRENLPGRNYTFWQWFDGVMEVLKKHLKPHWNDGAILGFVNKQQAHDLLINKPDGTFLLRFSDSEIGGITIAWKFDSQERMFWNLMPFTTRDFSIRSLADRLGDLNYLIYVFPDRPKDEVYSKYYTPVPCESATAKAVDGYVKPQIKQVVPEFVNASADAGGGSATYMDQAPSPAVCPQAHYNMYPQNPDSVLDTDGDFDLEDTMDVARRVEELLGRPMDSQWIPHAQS
Experiment: HTRF assay, STAT5b
Format: binding
Details: STAT5b 80 nM, without reducing agent, 1 h
Description: The azo dyes PPADS and iso‐PPADS have a deep red color in aqueous solution. […] In order to exclude this possibility, we established homogeneous time‐resolved fluorescence resonance energy transfer (HTRF) assays to confirm the degree of binding between STAT4, STAT5a, and STAT5b and the respective 5‐carboxyfluorescein‐labeled binding peptides used in the FP assay. In addition, an HTRF assay was established for STAT3, one of the STAT proteins targeted to a lesser extent in FP assays, as a specificity control (Figure 1B,C). The STAT protein constructs each contain a 6x‐His‐tag.^[ [15], [16], [17], [22] ^] A Tb^3+‐cryptate fused to an anti‐6x‐His antibody was chosen as the long‐lived fluorescent donor, while the carboxyfluorescein linked to the respective STAT‐binding peptides served as the acceptor (Figure 2A). Emission was measured with a time delay of 60 μs after excitation, allowing any initial compound fluorescence to decay beforehand. […]
Screening of chemical libraries comprising approximately 5000 known bioactive compounds in fluorescence polarization-based assays against phosphorylation-dependent protein-protein interaction domains, including STAT proteins, has been described.[1] […]
Fluorescence polarization assays
Competitive fluorescence polarization (FP) assays for STAT1,[2] […] Briefly, peptide binding to proteins was analyzed using the following carboxyfluorescein (CF) -labelled pepti des at a concentration of 10 nM: STAT1: 5-CF-GpYDKPHVL-OH, STAT3: 5-CF-GpYLPQTV -NH2, STAT4: 5-CF-GpYLPQNID-OH, STAT5a and STAT5b: 5-CF-GpYLVLDKW-OH, STAT6: 5- […]
CFGp[…]-OH. […] FP was measured using an Infinite F500 plate reader (Tecan) and measurements were converted into percent inhibition according to the binding curve equation. Curves were plotted and best fits calculated using OriginPro […]
Homogenous time-resolved fluorescence (HTRF) assays for STAT3, STAT4, STAT5a and STAT5b were carried out using Cisbio Monoclonal Antibody Anti-6His-Tb Gold as the fluorescence donor (Perkin Elmer) and the corresponding CF-labelled binding peptide as the acceptor. […] The average reading from 3 wells was obtained. […]

Cc1nc(/N=N/c2ccc(S(=O)(=O)O)cc2S(=O)(=O)O)c(COP(=O)(O)O)c(C=O)c1O [PPADS, pyridoxalphosphate‐6‐azophenyl‐2',4'‐disulfonic acid]
IC50: 1.22 ± 0.27 µM

Cc1nc(/N=N/c2cc(S(=O)(=O)O)ccc2S(=O)(=O)O)c(COP(=O)(O)O)c(C=O)c1O [iso‐PPADS]
IC50: 0.8 ± 0.1 µM
